Laboratory results taken from patent publication US20050208496A1, “Methods of testing for bronchial asthma or chronic obstructive pulmonary disease” (Genox Research, Inc., priority 2002, published 2005).

System: respiratory epithelial cells

## IL-13: human IL-13 (Peprotech, Inc.) added to the medium at 50 ng/mL to stimulate respiratory epithelial cells
Lot 1, Day 7, IMM method
  HLA-F (37421_f_at) expression, fold change upon IL-13 stimulation: 2.1 fold
  HLA-F (49203_f_at) expression fold change: 2.1 fold
  HS3ST1 (41556_s_at) expression fold change upon IL-13 stimulation: 3.7 fold
  HUMRTVLH3 (34702_f_at) expression, fold change upon IL-13 stimulation: 7 fold
  IFI27 (425_at) expression, fold change upon IL-13 stimulation: 2.8 fold
  IFI35 (464_s_at) expression, fold change upon IL-13 stimulation: 4.6 fold
  IFI44 (37641_at) expression, fold change upon IL-13 stimulation: 2.3 fold
  IFIT1 (915_at) expression, fold change upon IL-13 stimulation: 2.1 fold
  IFIT4 (38584_at) expression, fold change upon IL-13 stimulation: 3.4 fold
  IFITM1 (675_at) expression, fold change upon IL-13 stimulation: 8.1 fold
  IL13RA2 (1016_s_at) expression fold change upon IL-13 stimulation: 5.3 fold
  IL19 (47855_at) expression fold change: 2.6 fold
  ISG15 (1107_s_at) expression, fold change upon IL-13 stimulation: 3.8 fold
  ISG15 (38432_at) expression, fold change upon IL-13 stimulation: 5 fold
  ISG20 (33304_at) expression, fold change upon IL-13 stimulation: 4.2 fold
  KIAA0469 (37230_at) expression, fold change upon IL-13 stimulation: 2.4 fold
  KIAA0537 (33787_at) expression, fold change upon IL-13 stimulation: 3.3 fold
  KIAA1199 (36070_at) expression, fold change upon IL-13 stimulation: 2.3 fold
  KIAA1268 (57050_at) expression fold change: 2.4 fold
  KIAAI268 (59516_at) expression fold change: 4 fold
  KRT16 (601_s_at) expression fold change: 3.5 fold
  LOC57118 (51085_at) expression fold change: 5 fold
  MAT2A (32571_at) expression fold change upon IL-13 stimulation: 2.4 fold
  MDA5 (51920_at) expression fold change: 2.8 fold
  MFHAS1 (50388_at) expression fold change: 2.6 fold
  MMP7 (668_s_at) expression, fold change upon IL-13 stimulation: 2.8 fold
  MX2 (879_at) expression fold change: 2.4 fold
  MXI (37014_at) expression fold change: 11.2 fold
  NK4 (39119_s_at) expression fold change upon IL-13 stimulation: 2.5 fold
  NOS2A (1948_f_at) expression fold change upon IL-13 stimulation: 2.8 fold
  NOS2A (48918_at) expression fold change: 2.5 fold
  NTRK1 (36805_s_at) expression, fold change upon IL-13 stimulation: 6.5 fold
  OAF (39695_at) expression, fold change upon IL-13 stimulation: 5.1 fold
  OAS1 (38388_at) expression fold change upon IL-13 stimulation: 3.3 fold
  OAS1 (38389_at) expression fold change upon IL-13 stimulation: 3.3 fold
  OSF-2 (1451_s_at) expression fold change upon IL-13 stimulation: 30.6 fold
  PHKB (46459_at) expression fold change: −2.7 fold
  PITPNB (35017_f_at) expression, fold change upon IL-13 stimulation: 2.1 fold
  PLS1 (39951_at) expression fold change: 7.9 fold
  PSMB9 (38287_at) expression fold change upon IL-13 stimulation: 3.1 fold
  RASGRP1 (33291_at) expression fold change: 3.3 fold
  RIG-1 (59215_at) expression fold change: 3.8 fold
  SECTM1 (41045_at) expression, fold change upon IL-13 stimulation: 14 fold
  SERPINB2 (37185_at) expression fold change: 3 fold
  SERPINB4 (1549_s_at) expression fold change: 23.9 fold
  SIAT1 (41352_at) expression fold change upon IL-13 stimulation: 21.6 fold
  SLC26A4, pendrin (36376_at) expression fold change: 28.5 fold
  SSI-1 (41592_at) expression, fold change upon IL-13 stimulation: 8.3 fold
  STAT1 (33339_g_at) expression fold change: 2.1 fold
  TSPAN-3 (38612_at) expression, fold change upon IL-13 stimulation: 3.2 fold
  UFD1L (811_at) expression, fold change upon IL-13 stimulation: 3.8 fold
  WARS (38121_at) expression fold change upon IL-13 stimulation: 6 fold
  cig5 (38549_at) expression, fold change upon IL-13 stimulation: 2.2 fold
  diubiquitin (39959_at) expression, fold change upon IL-13 stimulation: 9.7 fold
Lot 1 Day 3 AI
  AA059458 (65626_at) expression change: −2.3
  AA151265 (60939_i_at) expression change: −2.5
  AA160156 (47578_at) expression change: −2.4
  AA422178 (53747_at) expression change: −5.3
  AA456099 (59567_at) expression change: −2
  AA772055 46104_at expression change: −5.4
  AF052107 38262_at expression change: −2.5
  AI050855 (64285_at) expression change: −3.6
  AI264299 (84903_f_at) expression change: −3.1
  AI432375 (49819_at) expression change: −4.3
  AI468340 (72604_at) expression change: −2
  AI760772 (58528_s_at) expression change: −2.3
  AI829641 (84270_at) expression change: −5.1
  AI917602 (49985_at) expression change: −2.3
  AI923984 33546_at expression change: −3.2
  AL040936 (45684_at) expression change: −2.7
  AQP5 32909_at expression change: −6.3
  ARHGEF4 36524_at expression change: −3.5
  ARHV (82231_at) expression change: −2
  AW025596 52637_g_at expression change: −4.8
  BARX2 35425_at expression change: −3.1
  BPGM (51261_at) expression change: −4
  CRABP-II 1057_at expression change: −4.6
  DKFZp434K1210 44682_at expression change: −4.4
  DREV1 (63813_at) expression change: −2
  DSC3a, b 47119_at expression change: −2.4
  EIF4EBP1 (54152_at) expression change: −2.2
  FLJ10298 (62490_f_at) expression change: −3.7
  FLJ20048 (49196_at) expression change: −2.4
  FLJ20373 54030_at expression change: −2.1
  GABRP 40339_at expression change: −2.2
  GJA1 32531_at expression change: −4.4
  GSTA3 58023 at expression change: −4.6
  HEY1 44783_s_at expression change: −6.2
  HIN-1 (46200_at) expression change: −5.4
  HSPC195 44705_at expression change: −2.5
  IVL 36355_at expression change: −6.8
  K1IAA1102 (64345_s_at) expression change: −2.7
  KLF7 34216_at expression change: −2.5
  KLF7 (42769_at) expression change: −3.2
  KRT6B (62998_at) expression change: −3.4
  KRT15 37582_at expression change: −5.2
  LOC51297 (49616_at) expression change: −9.1
  LOC51297 (55440_at) expression change: −57.3
  LOC51297 (55442_g_at) expression change: −14
  LOC51316 (63342_at) expression change: −2
  LOC129642 (58288_at) expression change: −2.8
  LOC131177 (43849_s_at) expression change: −5.2
  LOC131177 (45394_s_at) expression change: −4.4
  MGC13102 (54791_at) expression change: −6.5
  MGC14128 55924_at expression change: −2.6
  MGC14128 (51669_r_at) expression change: −2.8
